Read-outs that look alike come from different tables or passages of the source.
Columns and labels:
Assay type in all cases: physicochemical
[1] = Dynamic vapor sorption (DVS), hygroscopicity; conditions: for Maximum sorption / Hygroscopicity (0-40% RH) / Hygroscopicity (0-90% RH) / Change in mass, Desorption / Change in mass, Sorption / Change in mass, Hysteresis: DVS; for Maximum sorption / Hygroscopicity (0-40% RH) / Hygroscopicity (0-90% RH): 25° C.; for Hygroscopicity; form change: form change after DVS
Protocol: Dynamic vapor sorption (“DVS”) was performed at 25° C., using approx 10-15 mg of sample and N2 gas at a flow rate of 200 mL/min, dm/dt=0.01% min, minimum dm/dt stability duration of 10 min, max equilibration time of 180 min, drying at 0% RH for 120 min, scanning from 0% RH to 90% RH to 0% RH with a step size of 10% RH.
Total cycling time varied, but in all cases was about 200-250 min.

[2] = Solubility in physiologically relevant solutions (SGF, FaSSIF, FeSSIF); conditions: 25±0.5° C.; for solubility at 24 h: 25 °C, thermodynamic from solid
Protocol: Solubility of the free base 1 and the selected salts 8, 9, 10, and 11 in physiologically relevant solutions were examined. For each material, aliquots were added to 2 ml vials containing 500 uL of either SGF, FaSSIF, or FeSSIF, which were then sealed. The mixtures were kept shaking by thermomixer at 700 rpm, 25±0.5° C. for 24 h to facilitate the dissolution and then centrifuged by 96-well plates at 3000 rpm for 2 min. The filter liquors were diluted with diluents (ACN/water, 50/50) and analyzed by HPLC.

[3] = Stability (50° C., 40° C./75% RH, light; 1 week); conditions: for XRPD change? / purity: bulk, 1 week; for initial purity: initial (before storage)
Protocol: The stability of the free base 1 and the selected salts 8, 9, 10, and 11 was evaluated. For each material, aliquots were set up at each of conditions (50° C., 40° C./75% RH, light) at given time points (initial and 1 week). PXRD diffractograms of the hydrogen fumarate salt 11 is shown in FIG. 17, with trace (a) showing the initial salt, trace (b) showing the salt after light treatment, trace (c) showing the salt after storage at 40° C. and 75% relative humidity for 1 week, and (d) showing the salt after storage at 50° C. for 1 week.

[4] = simulated gastric fluid, SGF, read-out: Solubility SGF Conc
[5] = FaSSIF, read-out: Solubility FaSSIF Conc
[6] = FeSSIF, read-out: Solubility FeSSIF Conc

Work on CC(C)c1nc(-c2cnc(N)c(OC(F)(F)F)c2)cn1C12CC(N3CCOCC3)(C1)C2.O=C(O)/C=C\C(=O)O [Example 9, 5-(2-isopropyl-1-(3-morpholinobicyclo[1.1.1]pentan-1-yl)-1H-imidazol-4-yl)-3-(trifluoromethoxy)pyridin-2-amine hydrogen maleate] yielded a Maximum sorption [1] of 0.27%, a Hygroscopicity (0-40% RH) [1] of 0.07% and a Hygroscopicity (0-90% RH) [1] of 0.27%. The “Change in mass, Desorption” value ([1]; Target % P/P0 0.0) was −0.0030%, the “Change in mass, Sorption” value ([1]; Target % P/P0 0.0) was 0.0000% and the “Change in mass, Desorption” value ([1]; Target % P/P0 10.0) was 0.0196%. The “Change in mass, Hysteresis” value ([1]; Target % P/P0 10.0) was 0.0015%, the “Change in mass, Sorption” value ([1]; Target % P/P0 10.0) was 0.0181% and the “Change in mass, Desorption” value ([1]; Target % P/P0 20.0) was 0.0354%. The “Change in mass, Hysteresis” value ([1]; Target % P/P0 20.0) was 0.0038%, the “Change in mass, Sorption” value ([1]; Target % P/P0 20.0) was 0.0317% and the “Change in mass, Desorption” value ([1]; Target % P/P0 30.0) was 0.0573%. The “Change in mass, Hysteresis” value ([1]; Target % P/P0 30.0) was 0.0151%, the “Change in mass, Sorption” value ([1]; Target % P/P0 30.0) was 0.0422% and the “Change in mass, Desorption” value ([1]; Target % P/P0 40.0) was 0.0747%. The “Change in mass, Hysteresis” value ([1]; Target % P/P0 40.0) was 0.0090%, the “Change in mass, Sorption” value ([1]; Target % P/P0 40.0) was 0.0656% and the “Change in mass, Desorption” value ([1]; Target % P/P0 50.0) was 0.0950%. For the same compound, the “Change in mass, Hysteresis” value ([1]; Target % P/P0 50.0) was 0.0136%, the “Change in mass, Sorption” value ([1]; Target % P/P0 50.0) was 0.0814% and the “Change in mass, Desorption” value ([1]; Target % P/P0 60.0) was 0.1199%. The “Change in mass, Hysteresis” value ([1]; Target % P/P0 60.0) was 0.0158%, the “Change in mass, Sorption” value ([1]; Target % P/P0 60.0) was 0.1041% and the “Change in mass, Desorption” value ([1]; Target % P/P0 70.0) was 0.1516%. For the same compound, the “Change in mass, Hysteresis” value ([1]; Target % P/P0 70.0) was 0.0189%, the “Change in mass, Sorption” value ([1]; Target % P/P0 70.0) was 0.1327% and the “Change in mass, Desorption” value ([1]; Target % P/P0 80.0) was 0.1938%. The “Change in mass, Hysteresis” value ([1]; Target % P/P0 80.0) was 0.0151%, the “Change in mass, Sorption” value ([1]; Target % P/P0 80.0) was 0.1787% and the “Change in mass, Desorption” value ([1]; Target % P/P0 90.0) was 0.2655%. For the same compound, the “Change in mass, Sorption” value ([1]; Target % P/P0 90.0) was 0.2655%, the “Hygroscopicity; form change” value [1] was “no change” and the solubility at 24 h [2, 4] was 13400 µg/mL. The solubility at 24 h [2, 5] was 113 µg/mL, the solubility at 24 h [2, 6] was 565 µg/mL and the “FaSSIF pH after 24 h” value ([2]; FaSSIF) was 5.65. For the same compound, the “FeSSIF pH after 24 h” value ([2]; FeSSIF) was 4.90, the “SGF pH after 24 h” value ([2]; SGF) was 3.26 and the “XRPD change?” value ([3]; 40° C., 75% RH) was “no”. The purity ([3]; 40° C., 75% RH) was 99.87%, the “XRPD change?” value ([3]; 50° C.) was “no” and the purity ([3]; 50° C.) was 99.89%. For the same compound, the initial purity [3] was 99.83%, the “XRPD change?” value ([3]; light) was “no” and the purity ([3]; light) was 99.79%.

Work on CC(C)c1nc(-c2cnc(N)c(OC(F)(F)F)c2)cn1C12CC(N3CCOCC3)(C1)C2.O=C(O)CCC(=O)O [Example 10, 5-(2-isopropyl-1-(3-morpholinobicyclo[1.1.1]pentan-1-yl)-1H-imidazol-4-yl)-3-(trifluoromethoxy)pyridin-2-amine hydrogen succinate] yielded a Maximum sorption [1] of 0.30%, a Hygroscopicity (0-40% RH) [1] of 0.05% and a Hygroscopicity (0-90% RH) [1] of 0.3%. The “Change in mass, Desorption” value ([1]; Target % P/P0 0.0) was 0.0514%, the “Change in mass, Sorption” value ([1]; Target % P/P0 0.0) was 0.0000% and the “Change in mass, Desorption” value ([1]; Target % P/P0 10.0) was 0.0647%. The “Change in mass, Hysteresis” value ([1]; Target % P/P0 10.0) was 0.0496%, the “Change in mass, Sorption” value ([1]; Target % P/P0 10.0) was 0.0151% and the “Change in mass, Desorption” value ([1]; Target % P/P0 20.0) was 0.0727%. For the same compound, the “Change in mass, Hysteresis” value ([1]; Target % P/P0 20.0) was 0.0487%, the “Change in mass, Sorption” value ([1]; Target % P/P0 20.0) was 0.0239% and the “Change in mass, Desorption” value ([1]; Target % P/P0 30.0) was 0.0930%. The “Change in mass, Hysteresis” value ([1]; Target % P/P0 30.0) was 0.0611%, the “Change in mass, Sorption” value ([1]; Target % P/P0 30.0) was 0.0319% and the “Change in mass, Desorption” value ([1]; Target % P/P0 40.0) was 0.1081%. The “Change in mass, Hysteresis” value ([1]; Target % P/P0 40.0) was 0.0549%, the “Change in mass, Sorption” value ([1]; Target % P/P0 40.0) was 0.0532% and the “Change in mass, Desorption” value ([1]; Target % P/P0 50.0) was 0.1267%. For the same compound, the “Change in mass, Hysteresis” value ([1]; Target % P/P0 50.0) was 0.0541%, the “Change in mass, Sorption” value ([1]; Target % P/P0 50.0) was 0.0727% and the “Change in mass, Desorption” value ([1]; Target % P/P0 60.0) was 0.1489%. The “Change in mass, Hysteresis” value ([1]; Target % P/P0 60.0) was 0.0514%, the “Change in mass, Sorption” value ([1]; Target % P/P0 60.0) was 0.0975% and the “Change in mass, Desorption” value ([1]; Target % P/P0 70.0) was 0.1790%. For the same compound, the “Change in mass, Hysteresis” value ([1]; Target % P/P0 70.0) was 0.0523%, the “Change in mass, Sorption” value ([1]; Target % P/P0 70.0) was 0.1267% and the “Change in mass, Desorption” value ([1]; Target % P/P0 80.0) was 0.2233%. The “Change in mass, Hysteresis” value ([1]; Target % P/P0 80.0) was 0.0292%, the “Change in mass, Sorption” value ([1]; Target % P/P0 80.0) was 0.1941% and the “Change in mass, Desorption” value ([1]; Target % P/P0 90.0) was 0.3013%. The “Change in mass, Sorption” value ([1]; Target % P/P0 90.0) was 0.3013%, the “Hygroscopicity; form change” value [1] was “no change” and the solubility at 24 h [2, 4] was 7080 µg/mL. The solubility at 24 h [2, 5] was 72.2 µg/mL, the solubility at 24 h [2, 6] was 642 µg/mL and the “FaSSIF pH after 24 h” value ([2]; FaSSIF) was 5.92. The “FeSSIF pH after 24 h” value ([2]; FeSSIF) was 4.88, the “SGF pH after 24 h” value ([2]; SGF) was 3.71 and the “XRPD change?” value ([3]; 40° C., 75% RH) was “no”. The purity ([3]; 40° C., 75% RH) was 100%, the “XRPD change?” value ([3]; 50° C.) was “no” and the purity ([3]; 50° C.) was 100%. For the same compound, the initial purity [3] was 99.74%, the “XRPD change?” value ([3]; light) was “no (2)” and the purity ([3]; light) was 99.74%.
